From PubChem BioAssay (NCI) come the findings set out here.

The structures appear in SMILES notation.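 Assay format: 96-well plates, 48-hour exposure. Definition used: TGI = concentration required for complete inhibition of growth.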

Some test systems named below: HT29 colon; SR leukemia; OVCAR-3 ovarian; U251 CNS; SK-OV-3 ovarian; MALME-3M melanoma; OVCAR-4 ovarian; COLO 205 colon; EKVX NSCLC; HOP-92 NSCLC; SK-MEL-5 melanoma; SNB-75 CNS; RPMI-8226 leukemia.
Holding throughout (assay): growth of human tumour cells (NCI), 48 h

For `CCNc1nnc(-c2ccccc2Nc2ccccc2-c2nnc(NCC)s2)s1`, the TGI was 60.5 µM in the assay on HT29 colon; > 100 µM in the assay with SR leukemia; > 100 µM in the assay with OVCAR-3 ovarian; > 55.4 µM with U251 CNS; 31.3 µM with SK-OV-3 ovarian; 58.4 µM in the assay on MALME-3M melanoma. Further, the TGI was > 100 µM in the assay on OVCAR-4 ovarian; > 53.9 µM in the assay on COLO 205 colon; > 100 µM in the assay with EKVX NSCLC; 54.2 µM in the assay on HOP-92 NSCLC; 25.6 µM with SK-MEL-5 melanoma; > 87.9 µM in the assay with SNB-75 CNS. Further, the TGI in the assay on RPMI-8226 leukemia amounted to 73.4 µM.
With `O=C(CN=C(CN(c1ccccc1)c1ccccc1)Oc1ccc(Cl)cc1Cl)n1ccnc1`, the TGI with HT29 colon, with SR leukemia, in the assay with OVCAR-3 ovarian, with U251 CNS, with SK-OV-3 ovarian and in the assay on MALME-3M melanoma was > 100 µM in each case. For the same compound, the TGI in the assay on OVCAR-4 ovarian, in the assay with COLO 205 colon, in the assay on EKVX NSCLC, with HOP-92 NSCLC, in the assay with SK-MEL-5 melanoma and with SNB-75 CNS was > 100 µM in each case. Further, the TGI with RPMI-8226 leukemia is > 100 µM.
`C(#CC1(Nc2ccccc2)CCN(Cc2ccccc2)CC1)C1(Nc2ccccc2)CCN(Cc2ccccc2)CC1`: the TGI with HT29 colon is 39.4 µM; in the assay on SR leukemia it was > 24.8 µM; with OVCAR-3 ovarian it was > 97.1 µM; with U251 CNS, 43.6 µM; in the assay with SK-OV-3 ovarian, 13.1 µM; with MALME-3M melanoma, > 65.6 µM. The TGI is 53.7 µM with OVCAR-4 ovarian; 3.5 µM with COLO 205 colon; > 46.4 µM with EKVX NSCLC; 33.9 µM with HOP-92 NSCLC; 18.3 µM with SK-MEL-5 melanoma; 29.7 µM in the assay on SNB-75 CNS. Besides, the TGI with RPMI-8226 leukemia was 4.88 µM.
Turning to `O=S(=O)(CCC[C@H]1[C@@H](CCOCc2ccccc2)C2CCCN1O2)c1ccccc1` (stereo not given in full), the TGI in the assay on HT29 colon, in the assay with SR leukemia, with OVCAR-3 ovarian, in the assay with U251 CNS, with SK-OV-3 ovarian and in the assay on MALME-3M melanoma was > 100 µM in each case. Further, the TGI with OVCAR-4 ovarian, with COLO 205 colon, in the assay on EKVX NSCLC, in the assay on HOP-92 NSCLC, with SK-MEL-5 melanoma and in the assay with SNB-75 CNS was > 100 µM each time.
For the compound `O=[N+]([O-])/C(Cl)=C/C(=C1/Nc2ccccc2O1)[N+](=O)[O-]`, the TGI in the assay with HT29 colon was > 100 µM; with SR leukemia, 47.1 µM; in the assay on OVCAR-3 ovarian, 57.5 µM; with U251 CNS, 28.7 µM; with SK-OV-3 ovarian, 75.7 µM; with MALME-3M melanoma it was 29.8 µM. For the same compound, the TGI in the assay on OVCAR-4 ovarian was found to be 84.4 µM; in the assay with COLO 205 colon, 45.1 µM; in the assay on EKVX NSCLC, 40.5 µM; in the assay with HOP-92 NSCLC it was 63.7 µM; in the assay with SK-MEL-5 melanoma it was 40.5 µM; with SNB-75 CNS, 35.5 µM. In the assay on RPMI-8226 leukemia, the TGI was 66.1 µM.
Regarding `C=CC1(c2ccc3ccccc3c2)OCC(CC)O1` (stereo not given), the TGI in the assay with HT29 colon is 91.2 µM; in the assay with SR leukemia it was 61.4 µM; in the assay on OVCAR-3 ovarian, > 100 µM; with U251 CNS, > 100 µM; in the assay on SK-OV-3 ovarian, > 100 µM; in the assay with MALME-3M melanoma, 93.2 µM. Also, the TGI was > 100 µM with OVCAR-4 ovarian; > 100 µM with COLO 205 colon; > 100 µM with EKVX NSCLC; 75.2 µM in the assay on HOP-92 NSCLC; > 100 µM in the assay with SK-MEL-5 melanoma; > 100 µM in the assay with SNB-75 CNS. Also, in the assay with RPMI-8226 leukemia, the TGI was > 100 µM.
As to `Nc1cc(Cl)ccc1SSc1ccc(Cl)cc1N`, the TGI was 42.3 µM in the assay on HT29 colon; > 100 µM in the assay with SR leukemia; 15.4 µM in the assay on U251 CNS; > 100 µM with SK-OV-3 ovarian; 36.3 µM with MALME-3M melanoma; 31.1 µM in the assay on OVCAR-4 ovarian. For the same compound, the TGI with COLO 205 colon was 35.9 µM; in the assay on EKVX NSCLC, 24.5 µM; in the assay on HOP-92 NSCLC, > 100 µM; with SK-MEL-5 melanoma, 27 µM; with SNB-75 CNS it was 37.6 µM; in the assay with RPMI-8226 leukemia, > 100 µM.
Regarding `Cc1ccccc1Nc1nc(NNC(=O)Cc2ccccc2)nc(NNC(=O)c2ccncc2)n1`, the TGI with HT29 colon, with SR leukemia, with U251 CNS, with SK-OV-3 ovarian, with MALME-3M melanoma and with OVCAR-4 ovarian was > 10 µM each time. The TGI with COLO 205 colon, in the assay with EKVX NSCLC, with HOP-92 NSCLC, in the assay on SNB-75 CNS and in the assay on RPMI-8226 leukemia was > 10 µM throughout.
Consider `COc1ccc(-c2nc3c(C(=O)NCCN(C)C)cccc3c3ccccc23)cc1`, for which the TGI with HT29 colon is 7.78 µM; with SR leukemia, 6.96 µM; in the assay with OVCAR-3 ovarian, 16.6 µM; in the assay on U251 CNS, 10.1 µM; in the assay on MALME-3M melanoma, 8.7 µM; with OVCAR-4 ovarian it was 12.5 µM. The TGI was determined as 4.51 µM in the assay on COLO 205 colon; 19.6 µM with EKVX NSCLC; 12.3 µM in the assay on HOP-92 NSCLC; 3.3 µM with SK-MEL-5 melanoma; 17.6 µM in the assay with SNB-75 CNS.
As to `COC(=O)C(c1ccc(OC)cc1)N1C(=O)[C@@H](NC(=O)c2ccccc2)[C@H]1[C@@H](C)O` (stereo not given in full), the TGI in the assay with HT29 colon, in the assay on SR leukemia, in the assay with OVCAR-3 ovarian, with U251 CNS, with SK-OV-3 ovarian and in the assay on MALME-3M melanoma was > 100 µM each time. Also, the TGI in the assay with OVCAR-4 ovarian, in the assay on COLO 205 colon, in the assay on EKVX NSCLC, with HOP-92 NSCLC, in the assay on SK-MEL-5 melanoma and with SNB-75 CNS was > 100 µM throughout.
For the compound `O=C(CC1(O)C(=O)Nc2c(Cl)cc(Cl)cc21)c1ccc(F)cc1` (stereo not given), the TGI is 70.1 µM in the assay with HT29 colon; 57 µM in the assay with SR leukemia; 68.6 µM in the assay with OVCAR-3 ovarian; 97.1 µM with U251 CNS; > 100 µM with SK-OV-3 ovarian; > 100 µM in the assay on MALME-3M melanoma. The TGI in the assay with OVCAR-4 ovarian was 52.6 µM; with COLO 205 colon, 43 µM; in the assay with EKVX NSCLC, > 100 µM; in the assay with HOP-92 NSCLC it was > 100 µM; in the assay with SNB-75 CNS, 63.8 µM; with RPMI-8226 leukemia, 61.4 µM.
